# Reference: patent US20230346827A1 (priority 2020, published 2023)
# System: Mouse motor neurons
# Test: Gene expression array and pathway analysis, motor neurons, LMW-DS 0.01 mg/ml 48 h
# Format: cell-based
# Settings: for number of genes: abolished nutrient effect / number of genes: new effect induced by LMW-DS / number of genes: total / number of genes: enhanced response to nutrients / number of genes: not different from control / Activation z-score / Predicted activation state relative D2 control: motor neurons; for Activation z-score / Predicted activation state relative D2 control: D0 to LMW-DS treatment
# Method: For each cell line, n=8 × 25 cm^2 culture flasks were set up. Two flasks were harvested for each cell type on the day of treatment (24 hours after seeding). This represents the Day0 time point. From the remaining flasks, three flasks were treated with Control Medium and three were treated with Culture Medium (CM) containing LMW-DS to give a final concentration of 0.01 mg/ml. Cells from the treated flasks were collected after 48 hours. Therefore the collected data represent (a) untreated cells (Day0 Controls and Day2 Controls) and (b) cells treated with LMW-DS (ILB®, Tikomed AB, Viken, Sweden, WO 2016/076780) for 48 hours (Day2 LMW-DS treated).
# The culture medium was prepared according to Table 28.
# Medium (see Table 28) was pre-warmed to 37° C. Cells were thawed in a 37° C. water bath for no longer than 2 min. 9 ml of media was gently added drop-wise. The cell suspension was mixed by inverting the tube carefully twice. The cells were counted with a Cellometer. The cells were centrifuged for 5 minutes at 200 x g. Supernatant was removed (to the last 0.5 ml) and cells were gently re-suspended by trituration. The cells from the 8 vials were mixed and distributed equally into the previously coated 25 cm^2 flasks (n=8). Cells were incubated at 37° C. with 5% CO2 for 24 hours before treatment.
# LMW-DS was provided at a stock concentration of 20 mg/ml and was kept in a temperature monitored refrigerator at 4° C. A fresh 100x LMW-DS stock (1.0 mg/ml) was prepared in sterile DMEM-F12. The concentrated drug stock was sterile filtered and added to the respective culture media (19.6 ml CM and 0.4 ml LMW-DS stock solution). The Control was made using 19.6 ml CM and 0.4 ml of DMEM-F12. LMW-DS and CM were added to the respective flasks (5 ml each) to reach the 0.01 mg/ml concentration of LMW-DS in each dish with a total of 10 ml CM each.
# CM was aspirated into a clean and labelled 15 ml Falcon tube. The flasks (without culture medium) were placed into the -80° C. freezer for 30 minutes. The CM in the Falcon tubes was spun at 3000 x g for 5 minutes. Supernatant was removed and the small pellet was re-suspended in 2.5 ml Trizol:Water (4:1) solution at room temperature (RT, ~22° C.).
# Two aliquots of 1 ml lysate were removed from each sample and 200 µl of chloroform was added to each (0.2 ml of chloroform per 1 ml of TRIzol Reagent used during the cell lysis step) and the tube was shaken vigorously. Samples were stored at RT for 2-3 minutes and subsequently centrifuged at 12,000 x g for 15 minutes at 4° C.
# The RNA was precipitated from the aqueous phase by adding an equal amount of 100% ethanol. The precipitated RNA was fixed onto a Spin Cartridge, washed twice and dried. The RNA was eluted in 50 µl warm RNase-Free Water. The amount and quality of the purified RNA was measured by Nanodrop. The RNA was stored at -80° C. before transfer to Source Bioscience for Array analysis.
# The expression data were downloaded into separate files for each cell line. The ‘Background corrected’ expression is the data from the “gProcessedSignal” of the arrays that is the result of the background signal extracted from the actual signal of the relevant probe. This is the most often used variable in array analysis. The background corrected signal was log2 transformed for all samples for statistical analysis. To reduce the false discovery rate in the samples, the signals that were below ‘expression level’ were removed. The ‘below expression’ level was set at 5 for the log2 transformed expression values.
# Based on the expression pattern of the Control probes on each array it was decided to carry out Median Centering for all arrays before analysis to reduce the variability of the results. […]
# [1] = pathway analysis of gene expression
substance,measurement,setting,value
sodium salt of dextran sulfate [LMW-DS],number of differentially expressed genes,D0 control to D2 LMW-DS treated,315
same,number of differentially expressed genes,D0 control to D2 LMW-DS treated (second statement),425
same,number of genes: abolished nutrient effect,no effect,177
same,number of genes: new effect induced by LMW-DS,no effect,108
same,number of genes: total,no effect,285
same,number of genes: abolished nutrient effect,significant downregulation,47
same,number of genes: enhanced response to nutrients,significant downregulation,36
same,number of genes: new effect induced by LMW-DS,significant downregulation,375
same,number of genes: not different from control,significant downregulation,104
same,number of genes: total,significant downregulation,562
same,number of genes: abolished nutrient effect,significant upregulation,40
same,number of genes: enhanced response to nutrients,significant upregulation,103
same,number of genes: new effect induced by LMW-DS,significant upregulation,71
same,number of genes: not different from control,significant upregulation,75
same,number of genes: total,significant upregulation,289
same,number of genes: abolished nutrient effect,total,264
same,number of genes: enhanced response to nutrients,total,139
same,number of genes: new effect induced by LMW-DS,total,554
same,number of genes: not different from control,total,179
same,number of genes: total,total,1136
same,amyloid-β production,[1],preventing
same,inhibition of glutamate production,[1],not affected
same,level of H2O2,[1],reduced
same,Activation z-score,upstream regulator AGT,2.631
same,Predicted activation state relative D2 control,upstream regulator AGT,Activated
same,Activation z-score,upstream regulator BMP4,0.972
same,Predicted activation state relative D2 control,upstream regulator BMP4,More activated relative to control
same,Activation z-score,upstream regulator BMP6,0.13
same,Predicted activation state relative D2 control,upstream regulator BMP6,More activated relative to control
same,Activation z-score,upstream regulator BMP7,1.092
same,Predicted activation state relative D2 control,upstream regulator BMP7,More activated relative to control
same,Activation z-score,upstream regulator INHA,0.588
same,Predicted activation state relative D2 control,upstream regulator INHA,More activated relative to control
